Measurements as given in article PMC7641127, “MCL1 binds and negatively regulates the transcriptional function of tumor suppressor p73” (Cell Death & Disease, 2020).
Like-named read-outs stand apart in the source and are kept apart here. Values belong to the compound of their own block, whether it stands above or below them. No end group written: not given here.

Key:
[1] = target: T1, recombinant MCL1 (Homo sapiens, UniProt Q07820); assay: Competitive fluorescence polarization assay (FPA), MCL1 with F-BAK probe; assay type: binding
T1 construct: made in house; host or cells: E. coli BL21 (DE3)
Source text: (§1) We next sought to determine which core domain, the DBD or the TD, of p73 mediates binding to MCL1. […] Therefore, we expressed and purified recombinant p73DBD and tested its ability to associate with MCL1 using competitive fluorescence polarization assay (FPA) analysis and NMR chemical shift perturbation (CSP) studies (Fig. 2a, Supplementary Fig. 1). FPA is a biochemical assay that can either determine the binding constant between a recombinant protein and a fluorescently labeled small molecule or peptide (i.e. direct FPA as a measure of KD) or it can determine the concentration in which an unknown binding partner can compete with bound fluorescently labeled ligand (competitive FPA as a measure of IC50).
In a flat-bottom, untreated black 96-well microplate (ThermoScientific), 80 μL recombinant protein is incubated with 10 μL 10× unlabeled peptide or small molecule inhibitor shaking at 300 rpm for 20 min to allow for binding. Once complete, 10 μL of 10× FITC-peptide is added per well. The plate is covered with an opaque lid to shake for an additional 40 min. After 1 h incubation is complete, the plate is read using the FP-Fluorescein setting (1.0 s, CW lamp filter—F485, emission filter, F535) on a Perkin Elmer Victor X5 plate reader. The buffer used for all assays is 1× PBS, pH 7.4. All experiments were completed in technical and biological triplicate. All data plotted in Fig. 2 is one representative assay in technical triplicate.

[2] = target: T1, recombinant MCL1; assay: Direct FPA of FITC-labeled peptides with MCL1; assay type: binding; conditions: N-terminally FITC-labeled peptide with recombinant MCL1; 1x PBS pH 7.4; 30 min; at or approaching limit of detection of probe
Source text: as §1
The buffer used for all assays is 1× PBS, pH 7.4. All experiments were completed in technical and biological triplicate.

[3] = test system: H1299 cells; assay: TaqMan RT-qPCR of p73 target genes in H1299; assay type: cell-based, human; conditions: 24 h, normalized to GAPDH, biological and technical triplicate
Description: Four known p73 target genes were analyzed by TaqMan RT-qPCR. After a baseline was established, H1299 cells were treated with b an siRNA targeting MCL1 (48 h) or c 2 μM MCL1 inhibitor A1210477 (24 h). […] All experiments were performed in biological and technical triplicate. Bar graphs shown with SEM of one representative assay. A Student’s t-test was applied to each target gene for each treatment for statistical analysis, p-values: *p < 0.05, **p < 0.01, ***p < 0.001, ****p < 0.0001.
RNA was purified from human cancer cell lines for RT-qPCR with the SurePrep TrueTotal RNA Purification Kit (Fisher BioReagents, BP2800-50) by the manufacturer’s protocol. The final concentration of purified RNA was measured using a Nanodrop 2000c spectrophotometer. Once RNA concentration was determined, a single step cDNA synthesis reaction was made in TempAssure PCR 8-Tube Strips (USA Scientific, 1402-2500) in technical duplicate as follows: 100 ng RNA, 16 μL nuclease-free water (Ambion, 1512103), and 4 μL qScript cDNA SuperMix (Quanta BioSciences Inc., 84034). […] Concentration was determined after the cDNA synthesis on the Nanodrop 2000c spectrophotometer. cDNA was diluted to 25 ng/μL into Molecular Biology Grade Water (Corning, 46-000-CM) and stored at −20 °C for future use. […]
All RT-qPCR reactions were performed in biological triplicate. […] All target genes analyzed were normalized to GAPDH. […]

[4] = test system: PC-3 cells; assay: TaqMan RT-qPCR of p73 target genes in PC-3; assay type: cell-based, human; conditions: normalized to GAPDH, biological and technical triplicate
Description: All RT-qPCR reactions were performed in biological triplicate. A master mix for each target or housekeeping gene was made with 15 μL RNAse-free water, 3 μL 20× RT-qPCR Primer Mix (ThermoScientific), 12 μL 25 ng/μL cDNA, and 30 μL TaqMan Universal Master Mix II, with UNG (Applied Biosystems, 2020-02-29). The mix was aliquoted out 20 μL/well in technical triplicate with the final concentration of cDNA at 100 ng/reaction. PCR reactions were performed on an Applied Biosystems ViiA 7 Real-Time PCR System for 40 cycles starting at 25 °C. Each cycle is 50 °C for 2 min, 95 °C for 10 min, and 15 s, and 60 °C for 1 min. Temperature shifts at 1.6 °C/s. All data are collected and analyzed using Applied Biosystems QuantStudio Real-Time PCR Software. All target genes analyzed were normalized to GAPDH. All primers had FAM-MGB probes. All TaqMan primers were ordered from ThermoFisher Scientific with the target gene and Assay ID included: CDKN2A/p21 (Hs00355782_m1), PMAIP1/NOXA (Hs00560402_m1), GADD45A (Hs00169255_m1), BBC3/PUMA (Hs00248075_m1), GAPDH (Hs02758991_g1).
Four known p73 target genes were analyzed by TaqMan RT-qPCR. After a baseline was established, cells were treated with b an siRNA targeting MCL1 or c 2 μM MCL1 inhibitor A1210477. […] All experiments were performed in biological and technical triplicate. Bar graphs shown with SEM of one representative assay. […]

[5] = test system: PC-3 cells; assay: Annexin V/PI staining with FACS; assay type: cell-based, human; conditions: N=4
Description: Cells were seeded in a six-well plate and treated through various treatments to modulate MCL1 or p73 expression as they were in previous experiments. After the 24 or 48 h treatment, cells were collected through trypsin dissociation and washed twice with sterile DPBS. Cell number was counted on a BioRad Automated Cell Counter. After final wash, cells were pelleted at 1000×g for 10 min. The cell pellet was resuspended in 1× Annexin V binding buffer (BD Pharmingen, 556454) and 5 × 10^5 cells were transferred to a FACS tube containing 5 μL propidium iodide (PI) staining solution (BD Pharmingen, 51-66211E) and 5 μL FITC-Annexin V (BD Pharmingen, 556419). Cells were incubated for 15 min in the dark. FACS was collected on a BD LSRFortessa and analyzed using FlowJo v10. Compensation controls used for analysis include unstained cells and cells stained for each individual fluorophore (FITC-Annexin V and Cy5-PI). Gating strategy eliminated cell debris and doublets through forward and side scatter plots.
Supplemental Fig 3. […] Cells were stained with Annexin V and Propidium Iodide (PI) to determine the apoptotic cell population. […] All plots shown here are representative plots of the data set, N=4.

[6] = test system: PC-3 cells; assay: Cellular fractionation and western blot after cisplatin; assay type: cell-based, human; conditions: low dose (printed 5 mM), 24 hours, vs 0.5% DMF, western blot
Description: Cellular localization was performed using the NE-PER Nuclear and Cytoplasmic Extraction Reagent Kit (ThermoScientific, 78833) per the manufacturer’s protocol. The western blot quantification analysis was completed in the Image Lab 6.0.1 software using the Adjusted Volume tool. All assays were completed in biological triplicate with one representative image for each treatment group and/or cell line.
Cells were fractionated in cytosolic and nuclear compartments. Protein localization was analyzed through Western Blot analysis. Lamin A/C and GAPDH were used for fractionation controls. Band quantifications using the adjusted volume for each individual band are below for reference. All paired samples are normalized to the WCL treated with DMF alone.

[7] = test system: 15N MCL1; assay: 2D [15N,1H]-HSQC NMR chemical shift perturbation of 15N MCL1; assay type: binding, human; conditions: 50 μM 15N MCL1 + 200 μM ligand; 1x PBS pH 6.8; significant CSP = >2SD above mean (0.046 ppm)
Description: Fig. 3 P73 binds to the BH3-binding groove of MCL1. a 2D [^15N, ^1H]-HSQC spectra of 50 μM ^15N MCL1 + 2% DMSO (black contours) or 50 μM ^15N MCL1 + 200 μM p73_23mer TD-derived peptide (red contours). Amino acids with significant CSP (Δδ > 0.046 ppm: G217, F228, N239, D241, D242, H252, I264, V265, L267, I268, E292, L298, V299, T301, D304, and H320) or residues that were unable to be identified in the bound spectra (V216, G219, V220, V243, […], S247, R263, G271, R303, K308, and F315) are labeled for reference. b CSP quantified as a function of Δδ ppm for each amino acid residue. The first dotted line indicates 1SD from the mean (0.023) and the solid line indicates 2SD from the mean (0.046). Amino acids with significant CSP were identified as >2SD above the mean (blue). Amino acids that were unable to be identified in the bound spectra were set to −0.01 to differentiate them from peaks with no CSP (red). […]
The NMR HSQC spectra were acquired using a Bruker 600 MHz magnet at the Central Alabama High Field NMR Facility. […] The resulting spectra were analyzed using Computer-Aided Resonance Assignment (CARA) and the peak lists were exported to Microsoft Excel for the CSP quantification and calculation of the mean and standard deviation. […]
Supplemental Fig 1. […] The two cut offs represent the 1 and 2 SD cut offs determined through the 50 µM 15N hMCL1 + 200 µM p7323mer spectra in Fig 2.

[8] = competitive FPA, 50 nM recombinant MCL1, 10 nM F-BAK, unlabeled peptide titration, 1x PBS pH 7.4, 20 min pre-incubation + 40 min, mean ± SD, biological and technical triplicate, read-out: FPA IC50

T1 sequence (Q07820 whole entry): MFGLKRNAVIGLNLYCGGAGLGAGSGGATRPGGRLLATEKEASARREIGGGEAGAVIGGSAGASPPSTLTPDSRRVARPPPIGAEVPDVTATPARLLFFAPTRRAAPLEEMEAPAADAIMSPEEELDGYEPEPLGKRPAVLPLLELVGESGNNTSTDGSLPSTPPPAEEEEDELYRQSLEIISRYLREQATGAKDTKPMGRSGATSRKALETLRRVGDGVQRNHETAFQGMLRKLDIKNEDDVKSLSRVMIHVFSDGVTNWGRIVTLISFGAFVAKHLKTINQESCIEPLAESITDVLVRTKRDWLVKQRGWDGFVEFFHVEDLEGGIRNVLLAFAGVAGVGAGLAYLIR

Compound: DEDTYYLQVR-NH2 [β1]
IC50 [1, 8]: > 10 µM

Compound: N.N.[Cl][Pt][Cl] [cisplatin]
p73 target gene expression (p21, NOXA, GADD45, PUMA) ([3]; 10 μM): statistically significant increases in expression in at least three of the four p73 target genes
p73 target gene expression (p21, NOXA, GADD45, PUMA) ([4]; 5 μM, 24 h): statistically significant increases in expression in at least three of the four p73 target genes
Apoptosis, Annexin V/PI, positive control ([5]; 50 µM): significant increase in apoptosis
MCL1 protein levels in cytoplasmic and nuclear fractions [6]: increase MCL1 levels in both the cytoplasmic and nuclear compartments

Compound: Cc1nn(C)c(COc2ccc(N3CCN(S(=O)(=O)N(C)C)CC3)cc2)c1-c1cccc2c(CCCOc3cccc4ccccc34)c(C(=O)O)n(CCN3CCOCC3)c12 [A1210477]
p73 target gene expression (p21, NOXA, GADD45, PUMA) ([3]; 2 μM): significant increases in gene expression in at least three of the four p73 target genes
IC50 [1]: 2.59 µM
p73 target gene expression (p21, NOXA, GADD45, PUMA) ([4]; 2 μM): significant increases in gene expression in at least three of the four p73 target genes
Apoptotic induction, Annexin V/PI ([5]; 2 μM, 24 hours, vs 0.5% DMSO): no increase in apoptotic induction

Compound: p73DBD: recombinant p73 DNA-binding domain alone, amino acids 112–311
Association with MCL1 in competitive FPA ([1]; 50 nM recombinant MCL1, 10 nM F-BAK, titration of unlabeled protein): Neither NMR nor competitive FPA analysis exhibited significant changes
Chemical shift perturbation of MCL1 [7]: No amino acids in this spectra exhibited significant shifts

The remaining lines, values ahead:

IC50 [1, 8]: > 10 µM
Compound: VPQPLVDSYRQQQQLLQR-NH2 [α2]

Kd [2]: ≤ 0.005 µM
IC50 ([1]; competitive FPA, 50 nM recombinant MCL1, 10 nM F-BAK, unlabeled peptide titration, 1x PBS pH 7.4, 20 min pre-incubation + 40 min, mean ± SD, biological and technical triplicate, SD, read-out: FPA IC50): 0.982 ± 0.195 µM
Compound: GRENFEILMKLKESLELMELVPQ-NH2 [p73_23mer]
